From article PMC12116161, “An Elastase Inhibitor ShSPI from Centipede Attenuates Bleomycin-Induced Pulmonary Fibrosis” (Toxins, 2025)
“Also recorded” adds a separate entry of the source. Where a SMILES comes first, the peptide text is derived from it. Bridges are numbered along the chain shown (N, C = ends).

Columns and labels:
[1] = Pharmacokinetic study of ShSPI (plasma, LC-MS/MS); assay type: in vivo, mice; parameters: CI/F: unit not given here
Experimental: Each plasma sample was analyzed by LC-MS/MS, and the raw data were processed by DAS pharmacokinetic v2.1.1 software to obtain pharmacokinetic parameters (Table 3) and blood concentration–time curves (Figure 5).
Grouping and Sampling: SIPF grade Sprague Dawley (SD) healthy rats (male, procured from Hunan Slaughter King Laboratory Animal Co.) were randomly divided into three groups, with three rats in each group. All groups received a single administration of the ShSPI and were fasted for 12 h prior to dosing. The groups included two inhalation groups (1 mg/kg and 2 mg/kg) and an intravenous tail vein injection group (1 mg/kg). Blood samples were collected from the subclavian vein at 5 min, 15 min, 30 min, 1 h, 2 h, 4 h, 8 h, and 24 h post-dosing. A 0.2 mL blood sample was transferred into pre-labeled EDTA-2K anticoagulant tubes and gently inverted to ensure thorough mixing of the anticoagulant with the blood. Samples were immediately placed on ice. Plasma was separated within 1 h by centrifugation at 6800 rpm for 5 min at 4 °C. The supernatant was collected and stored at −20 °C until analysis.
Sample Preparation Before Analysis: Sample preparation was conducted under yellow light in an ice-water bath. For each analysis, 30 μL of standard or experimental sample was mixed with 200 μL of working solution, while blank samples were prepared with an equivalent volume of methanol. The mixture was vortexed thoroughly and centrifuged at 5500 rpm for 10 min. A 150 μL aliquot of the supernatant was mixed with 150 μL of ultrapure water, and the final mixture was subjected to analysis.
Chromatographic and Mass Spectrometry Conditions: Chromatographic separation was performed using an AQ C18 column (2.1 × 50 mm, 5.0 μm). The injection volume was 10 μL. The mobile phase consisted of 0.1% formic acid in water (A) and methanol (B), with the following gradient program: 10% B at 0–0.01 min, 98% B at 0.01–1.8 min, 98% B at 1.8–2.5 min, and 10% B at 2.5–3.0 min. The flow rate was set at 0.6 mL/min. Mass spectrometry analysis was performed using an electrospray ionization (ESI) source in multiple reaction monitoring (MRM) mode.

ICR healthy mice = assay: Single administration toxicity study: blood biochemistry and electrolytes; assay type: in vivo; conditions: single airway spray, day 14 post-dose, serum, automated biochemistry analyzer, mean ± s
Experimental: Specific pathogen-free (SIPF) grade ICR healthy mice (with an equal number of males and females, procured from Hunan Slaughter King Laboratory Animal Co., Changsha, China) were randomly divided into four experimental groups and received ShSPI via airway spray at doses of 0 mg/kg (control), 40 mg/kg, 80 mg/kg, or 160 mg/kg in a single administration. Following treatment, the mice were monitored for a 14-day observation period. On the fourteenth day, blood plasma samples were collected for precise measurement and analysis of hematological and biochemical parameters. The specific process is as follows.
On day 14 post-dose, approximately 1.7–2.0 mL of whole blood was collected for hematological and biochemical analyses. Hematological parameters were assessed using an automated hematology analyzer, while biochemical parameters were evaluated with an automated biochemistry analyzer. Prior to blood collection, all mice were fasted for at least 12 h. For hematological analysis, 200 μL of whole blood was immediately transferred into EDTA-containing tubes. For biochemical analysis, 1.5 mL of whole blood was placed into serum separator tubes without anticoagulant and centrifuged to isolate serum.

[2] = male, Sprague Dawley, inhaled or intranasal, 1 mg/kg ShSPI, single inhalation, plasma, LC-MS/MS, DAS software, mean ± s, n = 3, method SD rats
[3] = male, Sprague Dawley, inhaled or intranasal, 2 mg/kg ShSPI, single inhalation, plasma, LC-MS/MS, DAS software, mean ± s, n = 3, method SD rats
[4] = 40 mg/kg ShSPI, n = 6, * p < 0.05 vs blank control
[5] = 80 mg/kg ShSPI, n = 6, * p < 0.05 vs blank control

CC[C@H](C)[C@@H]1NC(=O)[C@H](C)NC(=O)[C@@H]2CCCN2C(=O)[C@@H]2CSSC[C@H](NC(=O)[C@H](CO)NC(=O)[C@H](CC(N)=O)NC(=O)[C@H](CO)NC(=O)[C@H](Cc3ccc(O)cc3)NC(=O)[C@H](CCSC)NC(=O)[C@H](CCCNC(=N)N)NC(=O)CNC(=O)[C@H](Cc3ccccc3)NC(=O)[C@H](CCC(=O)O)NC(=O)[C@H](CC(=O)O)NC(=O)[C@H](Cc3ccccc3)NC(=O)[C@H](C(C)C)NC(=O)[C@@H]3CCCN3C(=O)[C@H](CCC(N)=O)NC(=O)[C@H](Cc3ccc(O)cc3)NC1=O)C(=O)N[C@@H](CCC(=O)O)C(=O)N[C@@H](CCSC)C(=O)N[C@@H](CCC(N)=O)C(=O)N[C@@H](CCCNC(=N)N)C(=O)N[C@@H](C)C(=O)N[C@@H](CCCNC(=N)N)C(=O)N[C@H](C(=O)N[C@@H](CC(C)C)C(=O)N[C@@H](CCCNC(=N)N)C(=O)NCC(=O)O)CSSC[C@H](N)C(=O)N1CCC[C@H]1C(=O)N[C@@H](CCC(N)=O)C(=O)N[C@@H](C(C)C)C(=O)N2 [ShSPI] (H-CPQVCPAIYQPVFDEFGRMYSNSCEMQRARCLRG-OH; disulfide 1-31, 5-24; N-terminus and C-terminus assumed)
CI/F ([1]; 2 mg/kg ShSPI, single inhalation, plasma, LC-MS/MS, DAS software, mean ± s, n = 3, table says mice, method SD rats): 29.00 ± 11.90 | detectability in vivo (plasma) at 8 h post-administration ([1]; inhalation, doses of 1 mg/kg and 2 mg/kg, 8 h post-administration, LC-MS/MS): detected; also recorded: detectable | detectability in vivo (plasma) at 24 h post-administration ([1]; inhalation, doses of 1 mg/kg and 2 mg/kg, 24 h post-administration, LC-MS/MS): no longer detectable | AUC(0-t) [1, 2]: 580 ± 294 ng·h/mL | Cmax [1, 2]: 188 ± 64.4 ng/mL | MRT [1, 2]: 2.86 ± 0.725 h | Tmax ([1]; male, Sprague Dawley, inhaled or intranasal, 1 mg/kg ShSPI, single inhalation, plasma, LC-MS/MS, DAS software, n = 3, method SD rats): 1 h | AUC(0-inf) [1, 3]: 1260 ± 422 ng·h/mL | AUC(0-t) [1, 3]: 1170 ± 415 ng·h/mL | Cmax [1, 3]: 347 ± 151 ng/mL | MRT [1, 3]: 3.1 ± 0.898 h | half-life [1, 3]: 2.14 ± 0.663 h | Tmax ([1]; male, Sprague Dawley, inhaled or intranasal, 2 mg/kg ShSPI, single inhalation, plasma, LC-MS/MS, DAS software, n = 3, method SD rats): 1 h | overall metabolism in mice ([1]; overall assessment in words): moderate | ALBII (ICR healthy mice; 40 mg/kg ShSPI, n = 6): 29.13 ± 1.27 g/L | ALP (ICR healthy mice; 40 mg/kg ShSPI, n = 6): 85.25 ± 18.91 U/L | ALT (ICR healthy mice; 40 mg/kg ShSPI, n = 6): 44.95 ± 22.02 U/L | AST (ICR healthy mice; 40 mg/kg ShSPI, n = 6): 97.20 ± 13.33 U/L | CK (ICR healthy mice; 40 mg/kg ShSPI, n = 6): 236.4 ± 108.76 U/L | CREA-S (ICR healthy mice; 40 mg/kg ShSPI, n = 6): 21.70 ± 4.99 µmol/L | GLO2 (ICR healthy mice; 40 mg/kg ShSPI, n = 6): 17.67 ± 0.80 g/L | Glu-G (ICR healthy mice; 40 mg/kg ShSPI, n = 6): 9.93 ± 1.48 mmol/L | T-Bil-VII (ICR healthy mice; 40 mg/kg ShSPI, n = 6): 1.73 ± 0.80 µmol/L | TC (ICR healthy mice; 40 mg/kg ShSPI, n = 6): 2.09 ± 0.33 mmol/L | TG (ICR healthy mice; 40 mg/kg ShSPI, n = 6): 1.35 ± 0.50 mmol/L | TPII (ICR healthy mice; 40 mg/kg ShSPI, n = 6): 46.81 ± 1.48 g/L | UREA (ICR healthy mice; 40 mg/kg ShSPI, n = 6): 17.07 ± 3.07 mmol/L | calcium binding (ICR healthy mice; 40 mg/kg ShSPI, n = 6): 1.23 ± 0.011 mmol/L | chloride ion (ICR healthy mice; 40 mg/kg ShSPI, n = 6): 106.80 ± 1.14 mmol/L | potassium ion (ICR healthy mice; 40 mg/kg ShSPI, n = 6): 4.82 ± 0.27 mmol/L | r-GT (ICR healthy mice; 40 mg/kg ShSPI, n = 6): 0.38 ± 0.20 U/L | sodium ion (ICR healthy mice; 40 mg/kg ShSPI, n = 6): 152.39 ± 1.75 mmol/L | calcium ionomer (ICR healthy mice; [4]): 1.23 ± 0.01 * mmol/L | total calcium (ICR healthy mice; [4]): 2.48 ± 0.02 * mmol/L | ALBII (ICR healthy mice; 80 mg/kg ShSPI, n = 6): 28.05 ± 1.53 g/L | ALP (ICR healthy mice; 80 mg/kg ShSPI, n = 6): 94.75 ± 22.33 U/L | ALT (ICR healthy mice; 80 mg/kg ShSPI, n = 6): 38.58 ± 7.12 U/L | AST (ICR healthy mice; 80 mg/kg ShSPI, n = 6): 92.95 ± 20.45 U/L | CK (ICR healthy mice; 80 mg/kg ShSPI, n = 6): 175.4 ± 69.9 U/L | CREA-S (ICR healthy mice; 80 mg/kg ShSPI, n = 6): 23.10 ± 2.24 µmol/L | GLO2 (ICR healthy mice; 80 mg/kg ShSPI, n = 6): 17.21 ± 0.82 g/L | Glu-G (ICR healthy mice; 80 mg/kg ShSPI, n = 6): 9.71 ± 1.69 mmol/L | T-Bil-VII (ICR healthy mice; 80 mg/kg ShSPI, n = 6): 1.47 ± 0.43 µmol/L | TC (ICR healthy mice; 80 mg/kg ShSPI, n = 6): 2.21 ± 0.61 mmol/L | TG (ICR healthy mice; 80 mg/kg ShSPI, n = 6): 1.21 ± 0.32 mmol/L | TPII (ICR healthy mice; 80 mg/kg ShSPI, n = 6): 45.26 ± 1.62 g/L | UREA (ICR healthy mice; 80 mg/kg ShSPI, n = 6): 14.79 ± 3.07 mmol/L | calcium binding (ICR healthy mice; 80 mg/kg ShSPI, n = 6): 1.24 ± 0.05 mmol/L | chloride ion (ICR healthy mice; 80 mg/kg ShSPI, n = 6): 106.5 ± 1.26 mmol/L | potassium ion (ICR healthy mice; 80 mg/kg ShSPI, n = 6): 5.01 ± 0.46 mmol/L | r-GT (ICR healthy mice; 80 mg/kg ShSPI, n = 6): 0.00 ± 1.01 U/L | sodium ion (ICR healthy mice; 80 mg/kg ShSPI, n = 6): 150.7 ± 1.89 mmol/L | calcium ionomer (ICR healthy mice; [5]): 1.24 ± 0.05 * mmol/L | total calcium (ICR healthy mice; [5]): 2.49 ± 0.10 * mmol/L | ALBII (ICR healthy mice; 160 mg/kg ShSPI, n = 6): 30.1 ± 1.28 g/L | ALP (ICR healthy mice; 160 mg/kg ShSPI, n = 6): 98.6 ± 27.17 U/L | ALT (ICR healthy mice; 160 mg/kg ShSPI, n = 6): 39.80 ± 7.79 U/L | AST (ICR healthy mice; 160 mg/kg ShSPI, n = 6): 80.6 ± 16.79 U/L | CK (ICR healthy mice; 160 mg/kg ShSPI, n = 6): 156.4 ± 75.0 U/L | CREA-S (ICR healthy mice; 160 mg/kg ShSPI, n = 6): 19.1 ± 3.98 µmol/L | GLO2 (ICR healthy mice; 160 mg/kg ShSPI, n = 6): 18.0 ± 1.06 g/L | Glu-G (ICR healthy mice; 160 mg/kg ShSPI, n = 6): 9.24 ± 1.33 mmol/L | TC (ICR healthy mice; 160 mg/kg ShSPI, n = 6): 2.26 ± 0.33 mmol/L | TG (ICR healthy mice; 160 mg/kg ShSPI, n = 6): 1.23 ± 0.35 mmol/L | TPII (ICR healthy mice; 160 mg/kg ShSPI, n = 6): 48.2 ± 1.79 g/L | UREA (ICR healthy mice; 160 mg/kg ShSPI, n = 6): 13.6 ± 4.00 mmol/L | calcium binding (ICR healthy mice; 160 mg/kg ShSPI, n = 6): 1.28 ± 0.03 mmol/L | calcium ionomer (ICR healthy mice; 160 mg/kg ShSPI, n = 6): 1.28 ± 0.03 mmol/L | chloride ion (ICR healthy mice; 160 mg/kg ShSPI, n = 6): 106.5 ± 1.44 mmol/L | potassium ion (ICR healthy mice; 160 mg/kg ShSPI, n = 6): 4.68 ± 0.30 mmol/L | r-GT (ICR healthy mice; 160 mg/kg ShSPI, n = 6): 0.31 ± 0.35 U/L | sodium ion (ICR healthy mice; 160 mg/kg ShSPI, n = 6): 152.9 ± 1.60 mmol/L | total calcium (ICR healthy mice; 160 mg/kg ShSPI, n = 6, * p < 0.05 vs blank control): 2.5 ± 0.06 * mmol/L
